{"source": "ChEMBL document CHEMBL1201862", "about": "“PubChem BioAssay data set” (2004)", "key": {"[1]": {"target": "T1, Carboxy-terminal domain RNA polymerase II polypeptide A small phosphatase 1 (Homo sapiens, UniProt Q9GZU7)", "T1 sequence (Q9GZU7 whole entry)": "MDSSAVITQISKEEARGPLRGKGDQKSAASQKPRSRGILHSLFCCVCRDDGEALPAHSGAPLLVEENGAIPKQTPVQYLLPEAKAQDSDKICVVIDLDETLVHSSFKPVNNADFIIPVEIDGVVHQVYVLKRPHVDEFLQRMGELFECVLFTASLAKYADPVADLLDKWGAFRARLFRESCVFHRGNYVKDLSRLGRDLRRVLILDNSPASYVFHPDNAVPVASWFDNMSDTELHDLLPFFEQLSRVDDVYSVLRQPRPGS", "test": "inhibitors of CTDSP1, concentration-response testing, biochemical assay, absorbance-based, actives from ultra-high-throughput screening (AID 540297)", "assay_type": "functional"}, "[2]": {"test": "microbe, parasite or virus in culture", "assay_type": "functional", "details": "Mycobacterium tuberculosis"}, "[3]": {"test": "growth suppression of PTEN-null colon cells, dose response, cell-based, HCT116 PTEN knockout (AID 1047);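 also: cells exposed to compound for 60 hours before readout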", "assay_type": "functional"}, "[4]": {"test": "growth suppression of beta-catenin-knockout colon cells, dose response, cell-based, HCT116, human colon tumor (AID 1045);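 also: cells exposed to compound for 60 hours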", "assay_type": "functional"}, "[5]": {"test": "inhibitors of firefly luciferase expression or activity, dose response, H4 neuroglioma cells, luminescence (AID 1990)", "assay_type": "functional, cell-based"}, "INS1": {"tested_on": "INS1", "test": "beta cell apoptosis inhibitors, cytokine rescue, dose response, luminescence, retest (AID 449756);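 also: cell death triggered by IL-1 beta plus TNF-alpha plus IFN-gamma mixture; protective hits raise ATP signal compared with cytokine alone wells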", "assay_type": "functional, cell-based", "details": "Rattus norvegicus"}, "[6]": {"test": "Luminescence Cell-Based Dose Response HTS to Identify Inhibitors of 5'UTR Stem-Loop Driven Prion Protein mRNA Translation in H4 Neuroglioblastoma Cells. [Related pubchem assays: 1827 (Project Summary), 1813 (Primary HTS)]", "assay_type": "functional"}, "[7]": {"test": "inhibitors of SNCA 5'UTR-driven reporter translation, confirmation, H4 neuroglioma cells, luminescence (AID 1988)", "assay_type": "functional, cell-based"}, "[8]": {"target": "T2, Corticotropin-releasing factor receptor 2/Corticotropin-releasing factor-binding protein (Homo sapiens, UniProt P24387+Q13324)", "T2 sequence (Q13324 whole entry)": "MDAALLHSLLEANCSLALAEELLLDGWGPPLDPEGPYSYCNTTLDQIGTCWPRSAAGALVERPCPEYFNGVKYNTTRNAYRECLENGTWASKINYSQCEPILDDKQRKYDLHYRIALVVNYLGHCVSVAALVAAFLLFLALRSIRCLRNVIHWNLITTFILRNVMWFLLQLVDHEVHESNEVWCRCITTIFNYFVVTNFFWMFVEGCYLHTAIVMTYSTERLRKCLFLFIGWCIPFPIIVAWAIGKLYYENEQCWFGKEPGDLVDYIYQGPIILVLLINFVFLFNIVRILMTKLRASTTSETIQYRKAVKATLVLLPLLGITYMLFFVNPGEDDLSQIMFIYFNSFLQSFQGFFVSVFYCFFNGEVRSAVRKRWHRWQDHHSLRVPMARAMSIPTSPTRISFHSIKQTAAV", "T2 sequence (P24387 whole entry)": "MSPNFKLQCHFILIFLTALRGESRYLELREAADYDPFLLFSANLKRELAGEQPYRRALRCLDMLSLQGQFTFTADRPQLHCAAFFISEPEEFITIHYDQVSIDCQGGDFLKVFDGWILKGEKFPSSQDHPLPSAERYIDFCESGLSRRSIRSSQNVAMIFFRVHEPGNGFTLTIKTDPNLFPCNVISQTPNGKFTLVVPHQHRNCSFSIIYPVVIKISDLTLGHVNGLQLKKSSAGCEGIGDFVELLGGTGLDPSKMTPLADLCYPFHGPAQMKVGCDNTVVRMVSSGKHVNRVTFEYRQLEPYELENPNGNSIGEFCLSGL", "test": "activators of CRF receptor 2 with binding protein – uHTS hits, confirmation (AID 602473)", "assay_type": "functional", "details": "read-out: EC50_Mean"}, "[9]": {"test": "P. falciparum Dd2 growth inhibitors, dose response, SYBR Green, cherry-picked samples (AID 1159567)", "assay_type": "functional, cell-based"}, "Paired box protein Pax-8": {"target": "Paired box protein Pax-8 (Homo sapiens, UniProt Q06710)", "sequence (Q06710 whole entry)": "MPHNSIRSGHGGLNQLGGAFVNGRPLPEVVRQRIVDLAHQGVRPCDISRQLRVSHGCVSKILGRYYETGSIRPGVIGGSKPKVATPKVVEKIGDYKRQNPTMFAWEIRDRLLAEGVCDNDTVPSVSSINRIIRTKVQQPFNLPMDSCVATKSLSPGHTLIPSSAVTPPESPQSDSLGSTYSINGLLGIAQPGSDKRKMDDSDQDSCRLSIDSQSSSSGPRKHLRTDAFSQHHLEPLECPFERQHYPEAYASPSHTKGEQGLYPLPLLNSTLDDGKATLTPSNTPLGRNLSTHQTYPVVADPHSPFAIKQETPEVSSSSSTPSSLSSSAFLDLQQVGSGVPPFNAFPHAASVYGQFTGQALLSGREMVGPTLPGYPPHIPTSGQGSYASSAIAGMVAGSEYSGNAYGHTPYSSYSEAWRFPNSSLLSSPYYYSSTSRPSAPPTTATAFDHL", "test": "inhibitors of PAX8-driven TPO luciferase reporter, dose response, RMG-I cells, cherry-pick (AID 687027);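 also: luciferase reporter driven by Pax8 target thyroperoxidase promoter measured by SteadyGlo luminescence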", "assay_type": "functional, cell-based"}, "[10]": {"target": "Eukaryotic translation initiation factor 4E (Mus musculus, UniProt P63073)", "sequence (P63073 whole entry)": "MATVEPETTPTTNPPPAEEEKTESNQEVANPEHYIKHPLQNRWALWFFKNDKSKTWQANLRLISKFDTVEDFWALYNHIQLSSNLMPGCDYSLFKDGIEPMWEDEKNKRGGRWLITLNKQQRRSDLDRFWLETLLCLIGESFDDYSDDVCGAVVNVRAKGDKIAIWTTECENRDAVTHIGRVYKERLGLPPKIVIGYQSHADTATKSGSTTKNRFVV", "test": "eIF4E–eIF4G protein interaction inhibitors, dose response, biochemical, TR-FRET (AID 855);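 also: potency for disrupting eIF4E binding to eIF4GI seen as loss of FRET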", "assay_type": "functional"}, "[11]": {"target": "Induced myeloid leukemia cell differentiation protein Mcl-1 (Homo sapiens, UniProt Q07820)", "sequence (Q07820 whole entry)": "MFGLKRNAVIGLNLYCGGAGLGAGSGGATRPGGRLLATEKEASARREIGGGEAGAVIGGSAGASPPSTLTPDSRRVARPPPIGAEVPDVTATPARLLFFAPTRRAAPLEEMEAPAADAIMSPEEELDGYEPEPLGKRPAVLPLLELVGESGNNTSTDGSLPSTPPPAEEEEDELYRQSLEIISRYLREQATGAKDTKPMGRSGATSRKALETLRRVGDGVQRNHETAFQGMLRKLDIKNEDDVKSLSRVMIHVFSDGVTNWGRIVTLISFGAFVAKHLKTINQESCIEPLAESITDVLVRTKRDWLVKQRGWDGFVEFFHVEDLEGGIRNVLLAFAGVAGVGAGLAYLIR", "assay_type": "functional"}, "[12]": {"tested_on": "Streptococcus sp. 'group A'", "test": "growth inhibition of control SK(-) GAS strain, dose response, counter-screen for streptokinase expression inhibitor project, luminescence, kanamycin, BacTiterGlo, confirmation (AID 1900)", "assay_type": "functional, organism-based", "details": "read-out: EC50"}, "Streptococcus": {"tested_on": "Streptococcus", "test": "Group A Streptococcus viability loss, dose response, counter-screen for streptokinase expression inhibitor project, luminescence, BacTiterGlo (AID 1915);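 also: potency for reduction of bacterial viability or growth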", "assay_type": "functional, organism-based"}, "[13]": {"test": "Shn3 3'UTR reporter inhibitors, dose response, cell-based, Clone20 osteoblasts, firefly luciferase, cherry-picked (AID 624132)", "assay_type": "functional"}, "Streptokinase A": {"target": "T3, Streptokinase A (Streptococcus pyogenes serotype M1, UniProt P10520)", "T3 sequence (P10520 whole entry)": "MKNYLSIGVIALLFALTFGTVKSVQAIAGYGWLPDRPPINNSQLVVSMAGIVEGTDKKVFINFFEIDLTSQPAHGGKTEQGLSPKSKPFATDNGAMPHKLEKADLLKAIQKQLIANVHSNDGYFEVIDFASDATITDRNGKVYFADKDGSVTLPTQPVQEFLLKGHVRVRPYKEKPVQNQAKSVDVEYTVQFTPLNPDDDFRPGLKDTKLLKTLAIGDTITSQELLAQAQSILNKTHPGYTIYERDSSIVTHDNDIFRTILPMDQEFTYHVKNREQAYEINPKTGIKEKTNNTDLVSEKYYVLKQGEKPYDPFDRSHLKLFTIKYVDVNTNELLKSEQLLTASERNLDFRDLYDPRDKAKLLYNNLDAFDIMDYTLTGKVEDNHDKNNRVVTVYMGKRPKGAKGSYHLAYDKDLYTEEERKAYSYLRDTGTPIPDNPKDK", "test": "S. pyogenes streptokinase expression inhibitors, potency, dose response, plasminogen activation absorbance, OD405 (AID 1914);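 also: secreted streptokinase activity via plasminogen activation per viability signal from cell pellet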", "assay_type": "functional, Streptococcus pyogenes M1 GAS"}}, "note": "The source made the active and inactive calls."}
{"smiles": "O=C(c1ccc([N+](=O)[O-])cc1)c1cc2ccc(O)cc2oc1=O", "values": [{"measurement": "IC50", "setting": "[1]", "value": "10.8 µM (active)"}]}
{"smiles": "CCOC(=O)c1[nH]c(CN2CCN(c3ccc(OC)cc3)CC2)c(C(=O)OCC)c1C", "values": [{"measurement": "CC50", "setting": "[2]", "value": "> 40 µM (active)"}]}
{"smiles": "COc1ccc2o/c(=N\\c3ccccc3)c(-c3nc4ccccc4[nH]3)cc2c1", "values": [{"measurement": "EC50", "setting": "[3]", "value": "2.22 µM (active)"}, {"measurement": "EC50", "setting": "[4]", "value": "2.59 µM (active)"}]}
{"smiles": "CCCCCCc1cc2cc(C(=O)Nc3cccc(OC)c3)c(=O)oc2cc1O", "values": [{"measurement": "EC50", "setting": "[5]", "value": "> 120 µM (not active)"}, {"measurement": "AC50", "setting": "INS1", "value": "4.06 µM (active)"}, {"measurement": "EC50", "setting": "[6]", "value": "65.8 µM (active)"}, {"measurement": "EC50", "setting": "[7]", "value": "16.6 µM (active)"}, {"measurement": "EC50", "setting": "[8]", "value": "> 53 µM (inactive)"}]}
{"smiles": "COCC(=O)Nc1ccc2c(c1)C(=O)N(C)C[C@@H](OC)[C@H](C)CN(CC1CCCCC1)[C@@H](C)CO2", "values": [{"measurement": "AC50", "setting": "[9]", "value": "6.65 µM (active)"}]}
{"smiles": "C[C@H]1CN([C@@H](C)CO)S(=O)(=O)c2ccc(C#Cc3ccccc3F)cc2O[C@H]1CN(C)C(=O)c1ccc2c(c1)OCO2", "values": [{"measurement": "AC50", "setting": "Paired box protein Pax-8", "value": "5.76 µM (active)"}, {"measurement": "AC50", "setting": "[9]", "value": "5.07 µM (active)"}]}
{"smiles": "COc1ccccc1NC(=S)NC(=O)Cc1ccc(Cl)cc1", "values": [{"measurement": "EC50", "setting": "[8]", "value": "9.41 µM (active)"}]}
{"smiles": "CCCOC(=O)c1ccc(OCC(O)CN2CCN(C(=O)c3ccccc3)CC2)cc1", "note": "(configuration not stated)", "values": [{"measurement": "IC50", "setting": "[10]", "value": "> 64 µM (inactive)"}]}
{"smiles": "COc1ccc(CC(=O)Nc2ccc(-c3noc(-c4ccc(Cl)cc4)n3)cc2)cc1", "values": [{"measurement": "EC50", "setting": "[3]", "value": "2.11 µM (active)"}, {"measurement": "EC50", "setting": "[4]", "value": "1.69 µM (active)"}]}
{"smiles": "CCCCC(=O)Nc1ccc2oc(-c3ccncc3)nc2c1", "values": [{"measurement": "IC50", "setting": "[10]", "value": "> 64 µM (inactive)"}]}
{"smiles": "Cc1ccc2nc(N3C(=O)C(O)=C(C(=O)c4cc5ccccc5o4)C3c3cccs3)sc2c1", "note": "(configuration not stated)", "values": [{"measurement": "IC50", "setting": "[11]", "value": "2.37 µM (active)"}, {"measurement": "EC50", "setting": "[12]", "value": "1.39 µM (active)"}, {"measurement": "EC50", "setting": "Streptococcus", "value": "7.6 µM (active)"}]}
{"smiles": "COc1ccc2c(c1OC)C(=O)N1c3ccccc3C(=O)N(c3ccccc3F)C21", "note": "(configuration not stated)", "values": [{"measurement": "EC50", "setting": "[5]", "value": "> 120 µM (not active)"}, {"measurement": "EC50", "setting": "[6]", "value": "13.1 µM (active)"}, {"measurement": "EC50", "setting": "[7]", "value": "12 µM (active)"}, {"measurement": "AC50", "setting": "[13]", "value": "11.6 µM (active)"}]}
{"smiles": "CCN1C(NCCc2ccc(Br)cc2)=N[C@@H](c2ccccc2)[C@H](C(=O)OC)[C@H]1C", "values": [{"measurement": "CC50", "setting": "[2]", "value": "34.3 µM (active)"}]}
{"smiles": "COC(=O)[C@@]1(Cc2ccccc2)[C@H]2c3cc(C(=O)N4CCCC4)n(CCSCCO)c3C[C@H]2CN1C(=O)c1ccccc1", "values": [{"measurement": "IC50", "setting": "[11]", "value": "1.87 µM (not active)"}]}
{"smiles": "C=CCNc1oc(-c2ccc(-c3ccccc3)cc2)nc1C#N", "values": [{"measurement": "CC50", "setting": "[2]", "value": "> 40 µM (active)"}]}
{"smiles": "COc1ccc2[nH]c(=O)c(CN(CCN3CCCC3)C(=O)Nc3ccccc3Cl)cc2c1", "values": [{"measurement": "IC50", "setting": "[10]", "value": "> 64 µM (inactive)"}]}
{"smiles": "O=C(NC(=S)N1CCc2ccccc21)c1ccc(Br)o1", "values": [{"measurement": "CC50", "setting": "[2]", "value": "39.7 µM (active)"}]}
{"smiles": "COc1cc(/C=N/NC2=NC(=O)C(CC(=O)O)S2)ccc1OCc1ccc(Cl)cc1", "note": "(configuration not stated)", "values": [{"measurement": "IC50", "setting": "[1]", "value": "12.4 µM (active)"}]}
{"smiles": "COc1cc(NC(=O)c2ccccc2)c(OC)cc1NC(=O)Cc1cccs1", "values": [{"measurement": "IC50", "setting": "[1]", "value": "3.86 µM (active)"}, {"measurement": "IC50", "setting": "[10]", "value": "50 µM (inactive)"}]}
{"smiles": "CC(C)CN1C(=S)SC(C)(C)C1n1oc(=O)n(-c2ccc(Cl)cc2)c1=O", "note": "(configuration not stated)", "values": [{"measurement": "EC50", "setting": "[3]", "value": "21.9 µM (active)"}, {"measurement": "EC50", "setting": "[4]", "value": "20.7 µM (active)"}, {"measurement": "EC50", "setting": "[12]", "value": "4.36 µM (active)"}, {"measurement": "EC50", "setting": "Streptococcus", "value": "18.8 µM (active)"}, {"measurement": "EC50", "setting": "Streptokinase A", "value": "5.59 µM (active)"}]}
